The source of these data is patent US20230167073A1 (Teijin Pharma Limited, priority 2020, published 2023).

The assay has as its target T1, Human TRPC6 (Homo sapiens, UniProt Q9Y210).
T1 construct: expressed in transfected cells
T1 sequence (Q9Y210 1-931): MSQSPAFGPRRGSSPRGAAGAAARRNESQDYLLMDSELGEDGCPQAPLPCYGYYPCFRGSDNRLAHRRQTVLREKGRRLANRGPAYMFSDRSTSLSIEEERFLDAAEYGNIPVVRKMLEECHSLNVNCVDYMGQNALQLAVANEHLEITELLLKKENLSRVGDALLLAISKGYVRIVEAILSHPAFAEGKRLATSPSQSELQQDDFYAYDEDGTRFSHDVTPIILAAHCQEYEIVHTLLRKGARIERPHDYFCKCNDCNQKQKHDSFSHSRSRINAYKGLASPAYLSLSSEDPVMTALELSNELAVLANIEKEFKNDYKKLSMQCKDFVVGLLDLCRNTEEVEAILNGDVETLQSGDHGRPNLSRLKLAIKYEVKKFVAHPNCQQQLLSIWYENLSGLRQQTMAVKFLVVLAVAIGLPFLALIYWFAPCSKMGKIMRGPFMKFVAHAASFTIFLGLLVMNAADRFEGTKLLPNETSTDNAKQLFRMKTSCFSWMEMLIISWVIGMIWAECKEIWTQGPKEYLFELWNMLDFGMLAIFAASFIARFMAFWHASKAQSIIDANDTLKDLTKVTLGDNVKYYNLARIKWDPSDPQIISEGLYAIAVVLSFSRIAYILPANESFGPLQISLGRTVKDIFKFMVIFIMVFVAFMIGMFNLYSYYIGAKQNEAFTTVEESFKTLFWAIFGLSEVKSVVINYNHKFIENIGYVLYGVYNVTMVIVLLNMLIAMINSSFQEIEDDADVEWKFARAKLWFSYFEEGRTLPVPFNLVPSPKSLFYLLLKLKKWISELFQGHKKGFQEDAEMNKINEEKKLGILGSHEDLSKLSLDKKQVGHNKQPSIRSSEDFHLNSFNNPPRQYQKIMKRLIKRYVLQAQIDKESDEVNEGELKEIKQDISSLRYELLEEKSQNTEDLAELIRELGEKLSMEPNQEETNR
Kind of assay: Evaluation of TRPC6 channel inhibitory activity (1), FLIPR Calcium 5 Assay Kit, OAG stimulation (Compound Nos. 1-1293). The class given is cell-based. The following applies: Human TRPC6 stably-expressing cells, OAG 30 μM, FLIPR Calcium 5 Assay Kit; read-out: Inhibitory activity (pIC50 class) (converted). The method in brief: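 Stable human TRPC6 line; fluorescent Ca2+ dye loading, then 20 min compound exposure before 30 μM OAG trigger. Peak-minus-baseline signal converted to % inhibition against untreated and unstimulated wells; potency given as pIC50 band.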
`Cc1nc(CN(C)C)cn1Cc1cc(C#N)ccc1-c1ncc(CCN)cn1` [compound 1178, 4-[5-(2-aminoethyl)pyrimidin-2-yl]-3-[[4-[(dimethylamino)methyl]-2-methylimidazol-1-yl]methyl]benzonitrile]: the IC50 is greater than 1000 nM.
For `N#Cc1ccc(-n2cc(CCN)cn2)c(Oc2cnnc(N3CCCCC3)c2)c1` [Compound 283, 4-[4-(2-aminoethyl)pyrazol-1-yl]-3-(6-piperidin-1-ylpyridazin-4-yl)oxybenzonitrile], the IC50 was 10 to 1000 nM.
For `N#Cc1ccc(-c2ccc(CCN)cn2)c(Oc2nnc(N3CCCC3)s2)c1` [compound 719, 4-[5-(2-aminoethyl)pyridin-2-yl]-3-[(5-pyrrolidin-1-yl-1,3,4-thiadiazol-2-yl)oxy]benzonitrile] the value was 10 to 1000 nM; for `Cn1nc(N2CCCC2)cc1Cc1cc(C#N)ccc1-c1ccc(CCN)cn1` [compound 1212, 4-[5-(2-aminoethyl)pyridin-2-yl]-3-[(2-methyl-5-pyrrolidin-1-ylpyrazol-3-yl)methyl]benzonitrile], less than 10 nM.
For `Cc1nc(OCC2CC2(F)F)cc(Oc2cc(C#N)ccc2-c2ncc(CN)cn2)n1` (stereo not drawn) [compound 847, 4-[5-(aminomethyl)pyrimidin-2-yl]-3-[6-[(2,2-difluorocyclopropyl)methoxy]-2-methylpyrimidin-4-yl]oxybenzonitrile] the value was greater than 1000 nM.
The same measure for `CN(C)c1cc(Oc2cc(C#N)ccc2-c2ccc([C@@H](F)CN)cn2)n(C)n1` [compound 910, 4-[5-[(1R)-2-amino-1-fluoroethyl]pyridin-2-yl]-3-[5-(dimethylamino)-2-methylpyrazol-3-yl]oxybenzonitrile]: less than 10 nM.
For `Cn1nc(C2CCOC2)cc1Oc1cc(C#N)ccc1-c1ccc(CCN)cn1` (stereo not drawn) [compound 496, 4-[5-(2-aminoethyl)pyridin-2-yl]-3-[2-methyl-5-(oxolan-3-yl)pyrazol-3-yl]oxybenzonitrile], the IC50 is less than 10 nM.
`Cn1nc(N2CCCC2)cc1Oc1cc(C#N)ccc1-c1ncc(CN)cn1` [compound 625, 4-[5-(aminomethyl)pyrimidin-2-yl]-3-(2-methyl-5-pyrrolidin-1-ylpyrazol-3-yl)oxybenzonitrile]: the IC50 was less than 10 nM.
The same measure for `N#Cc1ccc(-c2ncc(CCN)cn2)c(Oc2nnc(N3CCOCC3)s2)c1` [compound 723, 4-[5-(2-aminoethyl)pyrimidin-2-yl]-3-[(5-morpholin-4-yl-1,3,4-thiadiazol-2-yl)oxy]benzonitrile]: 10 to 1000 nM.
For `Cc1nc(Nc2cc(C#N)ccc2-c2ccc3c(c2)COC32CNC2)cc(N2CCOCC2)n1` [Compound 3, 3-[(2-methyl-6-morpholin-4-ylpyrimidin-4-yl)amino]-4-spiro[3H-2-benzofuran-1,3′-azetidin]-5-ylbenzonitrile] the value was 10 to 1000 nM.
For `Cn1nc(N2CCCCC2)cc1Oc1cc(C#N)ccc1-c1ccc([C@H](O)CN)cn1` [compound 544, 4-[5-[(1S)-2-amino-1-hydroxyethyl]pyridin-2-yl]-3-(2-methyl-5-pipeddin-1-ylpyrazol-3-yl)oxybenzonitrile] the value was less than 10 nM; for `Cc1nc(Oc2cc(C#N)ccc2-c2ccc([C@H](O)CN)cn2)cc(-c2ncc(C)s2)n1` [compound 606, 4-[5-[(1S)-2-amino-1-hydroxyethyl]pyridin-2-yl]-3-[2-methyl-6-(5-methyl-1,3-thiazol-2-yl)pyrimidin-4-yl]oxybenzonitrile], 10 to 1000 nM; for `CC(C)(N)Cc1ccc(-c2ccc(C#N)cc2Oc2cnnc(N3CCOCC3)c2)cc1` [compound 297, 4-[4-(2-amino-2-methylpropyl)phenyl]-3-(6-morpholin-4-ylpyridazin-4-yl)oxybenzonitrile], 10 to 1000 nM.
For `Cc1cc(Oc2cc(C#N)ccc2-c2nnc(CN)s2)cc(N2CCOCC2)n1` [compound 593, 4-[5-(aminomethyl)-1,3,4-thiazol-2-yl]-3-(2-methyl-6-morpholin-4-ylpyridin-4-yl)oxybenzonitrile], the IC50 was greater than 1000 nM.
The same measure for `Cc1nc(Oc2cc(C#N)ccc2-c2ccc(CCN)nc2)cc(-c2ccccn2)n1` [Compound 166, 4-[6-(2-aminoethyl)pyridin-3-yl]-3-(2-methyl-6-pyridin-2-ylpyrimidin-4-yl)oxybenzonitrile]: 10 to 1000 nM; for `N#Cc1ccc(-c2ccc(C(O)CN)cc2)c(Oc2cnnc(N3CCOCC3)c2)c1` (stereo not drawn) [Compound 51, 4-[4-(2-amino-1-hydroxyethyl)phenyl]-3-(6-morpholin-4-ylpyridazin-4-yl)oxybenzonitrile]: greater than 1000 nM; for `CC(C)n1cc(C(=O)c2cc(C#N)ccc2-c2ncc(CCN)cn2)cn1` [compound 1044, 4-[5-(2-aminoethyl)pyrimidin-2-yl]-3-(1-propan-2-ylpyrazole-4-carbonyl)benzonitrile]: less than 10 nM.
The same measure for `Cc1cccc(-c2cn(Cc3cc(C#N)ccc3-c3ccc(CCN)cn3)cn2)c1` [compound 1148, 4-[5-(2-aminoethyl)pyridin-2-yl]-3-[[4-(3-methylphenyl)imidazol-1-yl]methyl]benzonitrile]: less than 10 nM; for `Cc1cc(C(=O)c2cc(C#N)ccc2-c2ncc(CN)cn2)cc(N2CCOCC2)n1` [compound 1049, 4-[5-(aminomethyl)pyrimidin-2-yl]-3-(2-methyl-6-morpholin-4-ylpyridine-4-carbonyl)benzonitrile]: less than 10 nM.
The same measure for `Cc1nc(Oc2cc(C#N)ccc2-c2ncc(CCN)cn2)cc(N2CCOCC2)n1` [compound 434, 4-[5-(2-aminoethyl)pyrimidin-2-yl]-3-(2-methyl-6-morpholin-4-ylpyrimidin-4-yl)oxybenzonitrile]: less than 10 nM; for `Cc1cc(Oc2cc(C#N)ccc2-c2ccc([C@H](O)CN)cn2)cc(N2CCCCC2)n1` [compound 500, 4-[5-[(1S)-2-amino-1-hydroxyethyl]pyridin-2-yl]-3-(2-methyl-6-piperidin-1-ylpyridin-4-yl)oxybenzonitrile]: less than 10 nM.
In the case of `Cn1nc(-c2ccccc2)cc1Oc1cc(C#N)ccc1-c1ccc(C(N)CO)cn1` (stereo not drawn) [compound 469, 4-[5-(1-amino-2-hydroxyethyl)pyridin-2-yl]-3-(2-methyl-5-phenylpyrazol-3-yl)oxybenzonitrile], the IC50 is less than 10 nM.
For `Cn1nc(C2CC2)cc1Oc1cc(C#N)ccc1-c1cc(OCCN)ccn1` [compound 556, 4-[4-(2-aminoethoxy)pyridin-2-yl]-3-(5-cyclopropyl-2-methylpyrazol-3-yl)oxybenzonitrile] the value was 10 to 1000 nM.
The same measure for `Cc1noc(C)c1-c1cc(Oc2cc(C#N)ccc2-c2ccc(CCN)cc2)cnn1` [Compound 110, 4-[4-(2-aminoethyl)phenyl]-3-[6-(3,5-dimethyl-1,2-oxazol-4-yl)pyridazin-4-yl]oxybenzonitrile]: greater than 1000 nM.
For the compound `Cn1nc(C2CC2)cc1Oc1cc(C#N)ccc1-c1cc(C(=O)NCCN)ccn1` [compound 551, N-(2-aminoethyl)-2-[4-cyano-2-(5-cyclopropyl-2-methylpyrazol-3-yl)oxyphenyl]pyridine-4-carboxamide], the IC50 is 10 to 1000 nM.
As to `Cc1nc(Sc2cc(C#N)ccc2-n2cc(CCN)cn2)cc(N2CCCC2)n1` [compound 1253, 4-[4-(2-aminoethyl)pyrazol-1-yl]-3-(2-methyl-6-pyrrolidin-1-ylpyrimidin-4-yl)sulfanylbenzonitrile], the IC50 is 10 to 1000 nM.
In the case of `Cc1cccc(-c2cc(Oc3cc(C#N)ccc3-n3cc([C@H](O)CN)cn3)nc(C)n2)c1` [Compound 206, 4-[4-[(1S)-2-amino-1-hydroxyethyl]pyrazol-1-yl]-3-[2-methyl-6-(3-methylphenyl)pyrimidin-4-yl]oxybenzonitrile], the IC50 was less than 10 nM.
The same measure for `Cn1nc(C2CC2)cc1Oc1cc(C#N)ccc1-c1ccc([C@H](O)CN)cn1` [compound 375, 4-[5-[(1S)-2-amino-1-hydroxyethyl]pyridin-2-yl]-3-(5-cyclopropyl-2-methylpyrazol-3-yl)oxybenzonitrile]: less than 10 nM; for `Cc1nc(-c2ccccc2)cn1Cc1cc(C#N)ccc1-c1ccc(C(O)CN)cc1` (stereo not drawn) [compound 1130, 4-[4-(2-amino-1-hydroxyethyl)phenyl]-3-[(2-methyl-4-phenylimidazol-1-yl)methyl]benzonitrile]: less than 10 nM.
Take `Cc1nc(Oc2cc(C#N)ccc2-c2csc(C(O)CN)n2)cc(N2CCOCC2)n1` (stereo not drawn) [Compound 168, 4-[2-(2-amino-1-hydroxyethyl)-1,3-thiazol-4-yl]-3-(2-methyl-6-morpholin-4-ylpyrimidin-4-yl)oxybenzonitrile]: the IC50 is 10 to 1000 nM.
